What was measured:
[1] = logP determination by HPLC on reversed-phase column, acidic range; type: physicochemical; conditions: for chromatographic logP: reversed-phase C18 HPLC column, pH=2.3; for logP / logP a): marked a): acidic range, 43° C.; for logP: 0.1% aqueous phosphoric acid/acetonitrile gradient, reversed-phase C 18 HPLC; for logP a): 0.1% aqueous phosphoric acid, acetonitrile gradient
Text: (a) Mobile phases for the determination in the acidic range: 0.1% aqueous phosphoric acid, acetonitrile; linear gradient from 10% acetonitrile to 90% acetonitrile—the corresponding measurement results in Table 1 are marked ^a).

[2] = test system: weeds; assay: Pre-emergence test (Example A), weeds; type: in vivo; conditions: soil sprayed 24 hours after sowing; rated after three weeks as % damage vs untreated control
Description: (§1) To produce a suitable preparation of active compound, 1 part by weight of active compound is mixed with the stated amount of solvent, the stated amount of emulsifier is added and the concentrate is diluted with water to the desired concentration.
Seeds of the test plants are sown in normal soil. After 24 hours, the soil is sprayed with the preparation of active compound such that the particular amount of active compound desired is applied per unit area. The concentration of active compound in the spray liquor is chosen such that the particular amount of active compound desired is applied in 1000 liters of water per hectare.
After three weeks, the degree of damage to the plants is rated in % damage in comparison to the development of the untreated control. The figures denote: • 0%=no effect (like untreated control) • 100%=total destruction

[3] = test system: weeds; assay: Post-emergence test (Example B), weeds; type: in vivo; conditions: test plants of a height of 5-15 cm sprayed; rated after three weeks as % damage vs untreated control
Description: as §1
Test plants of a height of 5-15 cm are sprayed with the preparation of active compound such that the particular amounts of active compound desired are applied per unit area. The concentration of the spray liquor is chosen such that the particular amounts of active compound desired are applied in 1000 l of water/ha.
After three weeks, the degree of damage to the plants is rated in % damage in comparison to the development of the untreated control.
The figures denote: • 0%=no effect (like untreated control) • 100%=total destruction

| SMILES | logP [1] | activity against weeds, pre-emergence [2] | logP a) [1] | other results |
| --- | --- | --- | --- | --- |
| CCn1ncc(C(=O)c2ccc(Cl)c(NC(=O)N3CCN(C)C3=O)c2Cl)c1O [Example 1, N-[2,6-dichloro-3-[(1-ethyl-5-hydroxy-1H-pyrazol-4-yl)-carbonyl]-phenyl]-3-methyl-2-oxo-1-imidazolidinecarboxamide] |  | strong activity |  | chromatographic logP [1]: 1.58; activity against weeds, post-emergence [3]: strong activity |
| CCn1ncc(C(=O)c2ccc(Cl)c(NC(=O)N(C)OC)c2Cl)c1O [Example 2] | (I-2) logP = 1,39^a) | strong activity |  | activity against weeds, post-emergence [3]: strong activity |
| CON(C)C(=O)Nc1c(Cl)ccc(C(=O)c2cnn(C)c2O)c1Cl [Example 3] | (I-2) logP = 1.13^a) | strong activity |  |  |
| CN1CCN(C(=O)Nc2c(Cl)ccc(C(=O)c3cnn(C)c3O)c2Cl)C1=O [Example 4] | (I-2) logP = 1.32^a) | strong activity |  |  |
| CN1CCN(C(=O)Nc2c(Cl)ccc(C(=O)O)c2Cl)C1=O [III-1, 2,4-dichloro-3-[[(3-methyl-2-oxo-1-imidazolidinyl)-carbonyl]-amino]-benzoic acid] |  |  |  | chromatographic logP [1]: 1.35 |
| COC(=O)c1ccc(Cl)c(NC(=O)N2CCN(C)C2=O)c1Cl [IIIa-1, methyl 2,4-dichloro-3-[[(3-methyl-2-oxo-1-imidazolidinyl)-carbonyl]-amino]-benzoate] |  |  |  | chromatographic logP [1]: 1.94 |
| COC(=O)c1ccc(Cl)c(NC(=O)N2CCOCC2)c1Cl [IIIa-6] |  |  | logP = 1.34^a) |  |
| COC(=O)c1ccc(Cl)c(NC(=O)NN(C)C)c1Cl [IIIa-7] |  |  | logP = 1.64^a) |  |
| COC(=O)c1ccc(Cl)c(NC(=O)N2CCN(C)CC2)c1Cl [IIIa-8] |  |  | logP = 0.50^a) |  |
| COC(=O)c1ccc(C(F)(F)F)cc1NC(=O)N(C)OC [IIIa-9] |  |  | logP = 3.35^a) |  |
| COC(=O)c1ccc(C(F)(F)F)cc1NC(=O)N1CCN(C)C1=O [IIIa-10] |  |  | logP = 2.76^a) |  |

Second part, led by results:

| logP [1] | SMILES | activity against weeds, pre-emergence [2] | logP a) [1] | other results |
| --- | --- | --- | --- | --- |
| (I-2) logP = 1.83^a) | CCn1ncc(C(=O)c2ccc(Cl)c(NC(=O)N3CCCN(C)C3=O)c2Cl)c1O [Example 5] | strong activity |  | activity against weeds, post-emergence [3]: strong activity |
| (I-2) logP = 1.13^a) | CCn1ncc(C(=O)c2ccc(Cl)c(NC(=O)N3CCOCC3)c2Cl)c1O [Example 6] | strong activity |  |  |
